Results from PubChem BioAssay AID651809 (Broad Institute, 2012).
Several values for one entry are separate records, joined by “and”; a condition that tells them apart may be missing. Equal entries are not always repeated. Activity calls are given as the source filed them. No rule for the calls is given here.

How the values were obtained:
[1] = Cholera quorum inducers, V. cholerae BH1578 lux reporter, luminescence, confirmatory dose response (AID 651809); settings: V. cholerae BH1578 lux reporter, luminescence, 6 h; at 35 µM (top of the series)
[2] = test system: V. cholerae BH1578 lux reporter, luminescence, 6 h; experiment: as above

Structure (SMILES) | activation [1] | AC40 [2]
CC(C)c1ccc(CNc2nn[nH]n2)cc1 | 0.032% (inactive) | –
CCCn1nnnc1NCc1ccc(C(C)C)cc1 | – | 0.529 µM
N#Cc1cccc(CC(=O)NC2CCCC2)c1 | -0.04% (inactive) | –
CCc1ccc(C(=O)Nc2nnnn2CC)cc1 | -0.042% (inactive) | –
CCn1nnnc1NCc1ccccc1 | 0.115% (inactive) | –
O=C(Cc1ccccn1)NC1CCCC1 | 0.07% (inactive) | –
O=C(Cc1ccccc1-c1ccccc1)NC1CCCC1 | -0.016% (inactive) | –
CCn1nnc(NCc2ccc(C(F)(F)F)cc2)n1 | -0.033% (inactive) | –
O=C(Cc1ccc(-c2ccccc2)cc1)Nc1ccccc1 | 0.038% (inactive) | –
CCn1nnnc1NCc1cccn1C | -0.015% (inactive) | –
Cc1ccc2cc3c(NC(=O)c4ccco4)nn(C)c3nc2c1 | – | 10.4 µM
CS(=O)(=O)c1cccc(CC(=O)NC2CCCC2)c1 | 0.049% (inactive) | –
CN(Cc1ccc(N2CCCC2)cc1)c1nnn(C)n1 | -0.005% (inactive) | –
CN1CCC(NC(=O)Cc2ccc(-c3ccccc3)cc2)CC1 | 3.34% (inactive) | –
CC(C)(C)OC(=O)N1CCC(NC(=O)Cc2ccc(-c3ccccc3)cc2)CC1 | -0.022% (inactive) | –
COc1ccccc1CC(=O)NC1CCCC1 | 0.627% (inactive) | –
O=C(Cc1ccc(-c2ccccc2)cc1)N1CCCCC1 | -0.022% (inactive) | –
O=C(Cc1ccc(F)cc1)NC1CCCC1 | 0.012% (inactive) | –
CS(=O)(=O)c1ccc(CC(=O)NC2CCCC2)cc1 | -0.009% (inactive) | –
O=C(Cc1ccc(-c2ccccc2)cc1)NC1CCCC1 | – | 0.89 µM and 0.645 µM
O=C(Cc1ccc(-c2ccccc2)cc1)NC1CCNCC1 | 0.085% (inactive) | –
O=C(NC1CCCC1)Oc1ccc(-c2ccccc2)cc1 | -0.045% (inactive) | –
O=C(O)Cc1ccc(-c2ccccc2)cc1 | 0.008% (inactive) | –
O=C(NCc1ccc(-c2ccccc2)cc1)C1CCCC1 | 0.158% (inactive) and 0.134% (inactive) | –

Structure (SMILES) | activation [1] | AC40 [2]
CCn1nnc(NCc2ccccc2)n1 | 0.35% (inactive) | –
COc1cccc(CC(=O)NC2CCCC2)c1 | -0.014% (inactive) | –
O=C(CCc1ccc(-c2ccccc2)cc1)NC1CCCC1 | -0.057% (inactive) | –
CCn1nnc(NCc2ccc(N3CCCC3)cc2)n1 | -0.042% (inactive) and -0.061% (inactive) | –
O=C(Cc1ccc(-c2cccnc2)cc1)NC1CCCC1 | 15.8% (inactive) | –
O=C(Cc1ccncc1)NC1CCCC1 | 0.026% (inactive) | –
O=C(Cc1cccc(F)c1)NC1CCCC1 | 0.009% (inactive) | –
Cc1ccc(CC(=O)NC2CCCC2)cc1 | 0.967% (inactive) | –
O=C(Cc1ccc(-c2ccccc2)cc1)NC1CCCCC1 | 10.4% (inactive) | –
c1cc(N2CCCC2)ccc1CNc1nn[nH]n1 | -0.038% (inactive) | –
c1ccc(-c2ccc(CCNC3CCCC3)cc2)cc1 | -0.024% (inactive) | –
O=C(Cc1cccc(C(F)(F)F)c1)NC1CCCC1 | 0.024% (inactive) | –
CC(C)c1ccc(CNc2nnn(C)n2)cc1 | 0.033% (inactive) | –
CN(Cc1ccc(N2CCCC2)cc1)c1nnnn1C | 14.6% (inactive) | –
Cn1nnnc1NCc1ccc(N2CCCC2)cc1 | – | 1.03 µM
O=C(Cc1ccccc1Cl)NC1CCCC1 | 0.002% (inactive) | –
O=C(Cc1ccc(-c2ccccn2)cc1)NC1CCCC1 | – | 10.5 µM
CCNC(=O)Cc1ccc(-c2ccccc2)cc1 | – | > 35 µM (inactive)
O=C(Nc1ccc(-c2ccccc2)cc1)NC1CCCC1 | 0.069% (inactive) | –
O=C(Cc1ccccc1)NC1CCCC1 | -0.05% (inactive) | –
O=C(Cc1ccccc1I)NC1CCCC1 | 0.012% (inactive) | –
O=C(Nc1nnc(-c2ccc3c(c2)OCCO3)o1)C1CCCCC1 | – | 2.29 µM
c1ccc(CNc2nn[nH]n2)cc1 | 0.04% (inactive) | –
O=C(Cc1cccnc1)NC1CCCC1 | -0.043% (inactive) | –

Structure (SMILES) | activation [1] | AC40 [2]
CC(C)NC(=O)Cc1ccc(-c2ccccc2)cc1 | – | 1.9 µM
O=C(Cc1ccc(C(F)(F)F)cc1)NC1CCCC1 | 0.008% (inactive) | –
CCn1nnnc1NC(=O)c1ccc(N2CCCC2)cc1 | 0.669% (inactive) | –
CCN(Cc1ccc(N2CCCC2)cc1)c1nnnn1CC | 1.22% (inactive) | –
O=C(Cc1ccc(-c2ccccc2)cc1)NCC1CCCC1 | 0.056% (inactive) | –
CCn1nnc(NCc2ccc(C(C)C)cc2)n1 | 0.061% (inactive) | –
O=C(Cc1cccc(OC(F)(F)F)c1)NC1CCCC1 | 1.1% (inactive) | –
Cn1nnnc1NCc1ccccc1 | -0.011% (inactive) | –
O=C(Cc1cccc(Cl)c1)NC1CCCC1 | 0.144% (inactive) | –
O=C(Cc1ccc(-c2ccccc2)cc1)NCc1ccccc1 | 0.004% (inactive) | –
Cc1cccc(CC(=O)NC2CCCC2)c1 | 0.44% (inactive) | –
CCn1nnnc1NCc1ccc(C(C)C)cc1 | – | 0.187 µM
CNC(=O)Cc1ccc(-c2ccccc2)cc1 | 0.578% (inactive) | –
O=C(Cc1ccc(-c2ccncc2)cc1)NC1CCCC1 | 1.61% (inactive) | –
O=C(Cc1ccccc1F)NC1CCCC1 | 0.011% (inactive) | –
Cn1nnc(NCc2ccc(C(F)(F)F)cc2)n1 | 1.48% (inactive) | –
O=C(Cc1ccc(-c2ccccc2)cc1)N1CCOCC1 | 0.215% (inactive) | –
CCn1nnnc1NCc1ccc(N2CCCC2)cc1 | – | 0.149 µM and < 0.135 µM
O=C(Cc1ccc2ccccc2c1)NC1CCCC1 | 1.41% (inactive) | –
O=C(Cc1ccc(-c2ccccc2)cc1)N1CCC1 | 1.77% (inactive) | –
O=C(Cc1cccc(-c2ccccc2)c1)NC1CCCC1 | 18% (inactive) | –
Cn1nnc(NCc2ccccc2)n1 | -0.02% (inactive) | –
O=C(Cc1ccc(-c2ccccc2)cc1)N1CCCC1 | 0.018% (inactive) | –
CN(C)C(=O)Cc1ccc(-c2ccccc2)cc1 | 0.185% (inactive) | –

Structure (SMILES) | activation [1] | AC40 [2]
CN(C(=O)Cc1ccc(-c2ccccc2)cc1)C1CCCC1 | 0.648% (inactive) | –
O=C(Cc1ccc(-c2ccccc2)cc1)NC1CCC1 | – | 0.499 µM
CCC(CC)NC(=O)Cc1ccc(-c2ccccc2)cc1 | – | 4.42 µM
FC(F)(F)c1ccc(CNc2nn[nH]n2)cc1 | -0.017% (inactive) | –
CN1CCN(C(=O)Cc2ccc(-c3ccccc3)cc2)CC1 | -0.018% (inactive) | –
CC(C)n1nnnc1NCc1ccc(N2CCCC2)cc1 | 133% (inactive) | –
O=C(Cc1ccccc1C(F)(F)F)NC1CCCC1 | 0.015% (inactive) | –
N#Cc1ccc(CC(=O)NC2CCCC2)cc1 | -0.056% (inactive) | –
Cn1nnnc1NCc1ccc(C(F)(F)F)cc1 | 0.204% (inactive) | –
O=C(Cc1ccc(-c2ccccc2)cc1)NC1CCOCC1 | – | 5.66 µM
O=C(Cc1ccc(-c2ccccc2)cc1)N1CCC(F)(F)CC1 | -0.007% (inactive) | –
O=C(Cc1ccc(OC(F)(F)F)cc1)NC1CCCC1 | 1.25% (inactive) | –
Cn1nnc(NCc2ccc(N3CCCC3)cc2)n1 | 0.034% (inactive) | –
O=C(Cc1ccc(-c2ccccc2)cc1)N1CC(F)(F)C1 | 1.11% (inactive) | –
Cc1ccccc1CC(=O)NC1CCCC1 | – | 7.56 µM
CC(C(=O)NC1CCCC1)c1ccc(-c2ccccc2)cc1 (stereo not given) | -0.069% (inactive) | –
O=C(Cc1ccccc1OC(F)(F)F)NC1CCCC1 | 0.011% (inactive) | –
O=C(Cc1ccc(Cl)cc1)NC1CCCC1 | 0.645% (inactive) | –
CCC(C)NC(=O)Cc1ccc(-c2ccccc2)cc1 (stereo not given) | – | 5.16 µM
CC(C)n1nnc(NCc2ccc(N3CCCC3)cc2)n1 | -0.029% (inactive) | –
CCn1nnnc1NCc1ccc(C(F)(F)F)cc1 | – | 17.8 µM
CC(C)c1ccc(CNc2nnnn2C)cc1 | – | 4.17 µM
COc1ccc(CC(=O)NC2CCCC2)cc1 | 2.06% (inactive) | –
